Results taken from patent US12091411B2, “IRAK degraders and uses thereof” (Kymera Therapeutics, Inc., priority 2022, dated 2024).
Where two headings read alike, the source gives them in different places.

Target: T1, IRAK4 (Homo sapiens, UniProt Q9NWZ3)
T1 construct: Degradation of IRAK4 in OCI-LY10 was quantitatively measured using Meso Scale Discovery technology; endogenous in cells; host or cells: OCI-LY10
T1 sequence (Q9NWZ3 1-460): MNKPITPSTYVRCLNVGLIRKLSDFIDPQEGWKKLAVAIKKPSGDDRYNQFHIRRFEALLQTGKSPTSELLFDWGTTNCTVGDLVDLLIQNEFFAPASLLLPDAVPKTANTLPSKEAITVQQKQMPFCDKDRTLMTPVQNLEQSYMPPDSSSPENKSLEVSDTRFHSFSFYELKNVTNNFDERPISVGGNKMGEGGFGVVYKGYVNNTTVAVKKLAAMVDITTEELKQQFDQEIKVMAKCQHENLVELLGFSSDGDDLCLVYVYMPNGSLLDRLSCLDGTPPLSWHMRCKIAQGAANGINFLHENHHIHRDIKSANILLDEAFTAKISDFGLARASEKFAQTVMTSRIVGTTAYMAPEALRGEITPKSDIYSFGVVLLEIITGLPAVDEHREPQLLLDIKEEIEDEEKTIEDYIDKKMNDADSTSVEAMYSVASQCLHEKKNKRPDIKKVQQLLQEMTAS
Assay: IRAK4 MSD Degradation in OCI-LY10
Type: cell-based
Conditions: OCI-LY10 cells, MSD
Method: Degradation of IRAK4 in OCI-LY10 was quantitatively measured using Meso Scale Discovery technology. […] Compounds were then added to the assay plates with a final top concentration of 1 to 10 μM in a 1:3 dilution series with total of 8 doses. The assay plates were then incubated for 4 to 24 hours at 37° C. under 5% CO2. […] To prepare MSD assay plates (Meso Scale Discovery Catalog number L15XA-3), the plates were coated with 2 μg/mL capture antibody (mouse Anti-IRAK4 antibody [2H9], ab119942) in PBS, at 40 μL/well. […] Cell lysates were then added to MSD assay plates and the plates were incubated at room temperature for 1 hour. The plates were then washed 3 times with 150 μL/well TBST buffer and 25 μL/well primary detection antibody (rabbit Anti-IRAK4 antibody [Y279], from Abcam. Catalog number ab32511, 1 μg/mL). The assay plates were then incubated at room temperature for 1 hour, washed 3 times with 150 μL/well TBST buffer and 25 μL/well secondary detection antibody, SULFO-TAG anti-rabbit antibody were added (anti-rabbit antibody from Meso Scale Discovery, Catalog number R32AB-1, 1 μg/mL). The assay plates were then incubated at room temperature for 1 hour, washed 3 times with 150 μL/well TBST buffer, and 150 μL/well MSD reading buffer (Meso Scale Discovery catalog number R92TC-2) was added. The plates were then analyzed by a MSD reader (Meso Scale Discovery, Model Quick Plex SQ 120). The data was then analyzed by software Prism 7.0 from GraphPad and the dose-depended IRAK4 degradation were fit using a three-parameter logistic equation to calculate DC50.
The letter codes for IRAK4 DC50 include: A (<0.01 μM); B (0.01 to <0.1 μM); C (0.1 to 0.2 μM); and D (>0.2 μM or not tested).

[1] = 4 hrs incubation, read-out: IRAK4 degradation in OCI-LY10 at 4 hrs: DC50
[2] = 24 hrs incubation, read-out: IRAK4 degradation in OCI-LY10 at 24 hrs: DC50

| SMILES | DC50 [1] [nM] | DC50 [2] [nM] |
| --- | --- | --- |
| C[C@@H]1CN(C[C@H]2CC[C@H](n3cc(NC(=O)c4cnn5ccc(N6C[C@@H]7C[C@H]6CO7)nc45)c(C(F)F)n3)CC2)CC[C@H]1OCC#Cc1cccc2c1n(C)c(=O)n2C1CCC(=O)NC1=O (some centres unmarked) [I-48] | 10 to 100 | > 200 |
| C[C@@H]1CN(C[C@H]2CC[C@H](n3cc(NC(=O)c4cnn5ccc(N6C[C@H]7C[C@@H]6CO7)nc45)c(C(F)F)n3)CC2)CC[C@H]1OCC#Cc1ccc2c(N3CCC(=O)NC3=O)cncc2c1 [I-49] | 10 to 100 | > 200 |
| Cn1c(=O)n(C2CCC(=O)NC2=O)c2cccc(C#CCN3C[C@@H]4C[C@H]3CN4C[C@H]3CC[C@H](n4cc(NC(=O)c5cnn6ccc(N7C[C@H]8C[C@@H]7CO8)nc56)c(C(F)F)n4)CC3)c21 (some centres unmarked) [I-50] | 10 to 100 | > 200 |
| COc1ccc2c(c1C#CCO[C@H]1CCN(C[C@H]3CC[C@H](n4cc(NC(=O)c5cnn6ccc(N7C[C@H]8C[C@@H]7CO8)nc56)c(C(F)F)n4)CC3)C[C@H]1F)n(C)c(=O)n2C1CCC(=O)NC1=O (some centres unmarked) [I-51] | 10 to 100 | > 200 |
| C[C@@H]1CN(C[C@H]2CC[C@H](n3cc(NC(=O)c4cnn5ccc(N6C[C@H]7C[C@@H]6CO7)nc45)c(C(F)F)n3)CC2)CC[C@H]1OCC#Cc1cccc2c(N3CCC(=O)NC3=O)cncc12 [I-55] | 10 to 100 | > 200 |
| C[C@H]1CN(C[C@H]2CC[C@H](n3cc(NC(=O)c4cnn5ccc(N6C[C@H]7C[C@@H]6CO7)nc45)c(C(F)F)n3)CC2)CC[C@@H]1OCC#Cc1ccc2c(N3CCC(=O)NC3=O)cncc2c1 [I-57] | 10 to 100 | > 200 |
| O=C1CCN(c2cncc3c(C4CCN(C5CCN(C[C@H]6CC[C@H](n7cc(NC(=O)c8cnn9ccc(N%10C[C@H]%11C[C@@H]%10CO%11)nc89)c(C(F)F)n7)CC6)CC5)CC4)cccc23)C(=O)N1 [I-74] | < 10 | > 200 |
| O=C1CCN(c2cncc3cc(C4CCN(C5CCN(C[C@H]6CC[C@H](n7cc(NC(=O)c8cnn9ccc(N%10C[C@H]%11C[C@@H]%10CO%11)nc89)c(C(F)F)n7)CC6)CC5)CC4)ccc23)C(=O)N1 [I-75] | < 10 | > 200 |
| O=C1CCN(c2cncc3c(N4CCN(C5CCN(C[C@H]6CC[C@H](n7cc(NC(=O)c8cnn9ccc(N%10C[C@H]%11C[C@@H]%10CO%11)nc89)c(C(F)F)n7)CC6)CC5)CC4)cccc23)C(=O)N1 [I-76] | < 10 | > 200 |
| O=C1CCN(c2cncc3cc(N4CCN(C5CCN(C[C@H]6CC[C@H](n7cc(NC(=O)c8cnn9ccc(N%10C[C@H]%11C[C@@H]%10CO%11)nc89)c(C(F)F)n7)CC6)CC5)CC4)ccc23)C(=O)N1 [I-77] | < 10 | > 200 |
| Cn1c(=O)n(C2CCC(=O)NC2=O)c2cccc([C@H]3C[C@@H](CN4CCN(C[C@H]5CC[C@H](n6cc(NC(=O)c7cnn8ccc(N9C[C@H]%10CC9CO%10)nc78)c(C(F)F)n6)CC5)CC4)C3)c21 (some centres unmarked) [I-78] | < 10 | > 200 |
| Cn1c(=O)n(C2CCC(=O)NC2=O)c2cccc([C@H]3C[C@H](CN4CCN(C[C@H]5CC[C@H](n6cc(NC(=O)c7cnn8ccc(N9C[C@H]%10C[C@@H]9CO%10)nc78)c(C(F)F)n6)CC5)CC4)C3)c21 (some centres unmarked) [I-79] | < 10 | > 200 |
| C[C@H]1CN(C[C@H]2CC[C@H](n3cc(NC(=O)c4cnn5ccc(N6C[C@@H]7C[C@H]6CO7)nc45)c(C(F)F)n3)CC2)CC[C@@H]1OCC#Cc1cccc2c1n(C)c(=O)n2[C@@H]1CCC(=O)NC1=O [I-80] | 10 to 100 | > 200 |

Results, then the molecule that gave them:

| DC50 [1] [nM] | DC50 [2] [nM] | SMILES |
| --- | --- | --- |
| < 10 | > 200 | O=C1CCN(c2cncc3c(C#CCO[C@@H]4CCN(C[C@H]5C[C@H](n6cc(NC(=O)c7cnn8ccc(N9C[C@H]%10C[C@@H]9CO%10)nc78)c(C(F)F)n6)C5)C[C@@H]4F)cccc23)C(=O)N1 [I-52] |
| < 10 | > 200 | C[C@H]1CN(C[C@H]2C[C@H](n3cc(NC(=O)c4cnn5ccc(N6C[C@H]7C[C@@H]6CO7)nc45)c(C(F)F)n3)C2)CC[C@@H]1OCC#Cc1cccc2c(N3CCC(=O)NC3=O)cncc12 [I-53] |
| < 10 | > 200 | COc1ccc2c(c1C#CCO[C@@H]1CCN(C[C@H]3C[C@H](n4cc(NC(=O)c5cnn6ccc(N7C[C@H]8C[C@@H]7CO8)nc56)c(C(F)F)n4)C3)C[C@@H]1F)n(C)c(=O)n2C1CCC(=O)NC1=O (some centres unmarked) [I-54] |
| < 10 | > 200 | C[C@H]1CN(C[C@H]2CC[C@H](n3cc(NC(=O)c4cnn5ccc(N6C[C@H]7C[C@@H]6CO7)nc45)c(C(F)F)n3)CC2)CC[C@@H]1OCC#Cc1cccc2c(N3CCC(=O)NC3=O)cncc12 [I-56] |
| < 10 | > 200 | COc1ccc2c(c1C#CCO[C@H]1CCN(C[C@H]3CC[C@H](n4cc(NC(=O)c5cnn6ccc(N7C[C@H]8C[C@@H]7CO8)nc56)c(C(F)F)n4)CC3)C[C@@H]1C)n(C)c(=O)n2C1CCC(=O)NC1=O (some centres unmarked) [I-58] |
| < 10 | > 200 | CCn1c(=O)n(C2CCC(=O)NC2=O)c2cccc(C#CCO[C@H]3CCN(C[C@H]4CC[C@H](n5cc(NC(=O)c6cnn7ccc(N8C[C@H]9C[C@@H]8CO9)nc67)c(C(F)F)n5)CC4)C[C@@H]3C)c21 (some centres unmarked) [I-59] |
| < 10 | > 200 | CCn1c(=O)n(C2CCC(=O)NC2=O)c2cccc(C#CCN3CCN(C[C@H]4CC[C@H](n5cc(NC(=O)c6cnn7ccc(N8C[C@H]9C[C@@H]8CO9)nc67)c(C(F)F)n5)CC4)CC3)c21 (some centres unmarked) [I-60] |
| < 10 | > 200 | Cn1c(=O)n(C2CCC(=O)NC2=O)c2cccc(N3CCN(C4CCN(C[C@H]5CC[C@H](n6cc(NC(=O)c7cnn8ccc(N9C[C@H]%10C[C@@H]9CO%10)nc78)c(C(F)F)n6)CC5)CC4)CC3)c21 (some centres unmarked) [I-62] |
| < 10 | > 200 | C[C@H]1CN(C[C@H]2CC[C@H](n3cc(NC(=O)c4cnn5ccc(N6C[C@H]7C[C@@H]6CO7)nc45)c(C(F)F)n3)CC2)CC[C@@H]1OCC#Cc1cccc2c1n(C1CC1)c(=O)n2C1CCC(=O)NC1=O (some centres unmarked) [I-63] |
| < 10 | > 200 | COc1ccc2c(c1C#CCO[C@@H]1CCN(C[C@H]3CC[C@H](n4cc(NC(=O)c5cnn6ccc(N7C[C@H]8C[C@@H]7CO8)nc56)c(C(F)F)n4)CC3)C[C@H]1C)n(C)c(=O)n2C1CCC(=O)NC1=O (some centres unmarked) [I-64] |
| < 10 | > 200 | O=C1CCC(n2c(=O)n(C3CC3)c3c(C#CCOC4CCN(C[C@H]5CC[C@H](n6cc(NC(=O)c7cnn8ccc(N9C[C@H]%10C[C@@H]9CO%10)nc78)c(C(F)F)n6)CC5)CC4)cccc32)C(=O)N1 (some centres unmarked) [I-65] |
| < 10 | > 200 | Cn1c(=O)n(C2CCC(=O)NC2=O)c2cccc(C3CC(CN4CCN(C[C@H]5CC[C@H](n6cc(NC(=O)c7cnn8ccc(N9C[C@H]%10C[C@@H]9CO%10)nc78)c(C(F)F)n6)CC5)CC4)C3)c21 (some centres unmarked) [I-66] |
| < 10 | > 200 | Cn1c(=O)n(C2CCC(=O)NC2=O)c2cccc(C3CC(OC4CCN(C[C@H]5CC[C@H](n6cc(NC(=O)c7cnn8ccc(N9C[C@H]%10C[C@@H]9CO%10)nc78)c(C(F)F)n6)CC5)CC4)C3)c21 (some centres unmarked) [I-68] |
| < 10 | > 200 | Cn1c(=O)n(C2CCC(=O)NC2=O)c2cccc(N3CCC(N4CCN(C[C@H]5CC[C@H](n6cc(NC(=O)c7cnn8ccc(N9C[C@H]%10C[C@@H]9CO%10)nc78)c(C(F)F)n6)CC5)CC4)CC3)c21 (some centres unmarked) [I-69] |
| < 10 | > 200 | CCn1c(=O)n(C2CCC(=O)NC2=O)c2cccc(C#CCOC3CCN(C[C@H]4CC[C@H](n5cc(NC(=O)c6cnn7ccc(N8C[C@H]9C[C@@H]8CO9)nc67)c(C(F)F)n5)CC4)CC3)c21 (some centres unmarked) [I-70] |
